Test results from paper PMC3703951 (Bioorganic & medicinal chemistry letters, 2013).

How the values were obtained:
human microsomal EH = target: T1, human microsomal EH (Homo sapiens, UniProt P07099); assay: Selectivity: inhibition of microsomal EH; type: biochemical; settings: selectivity panel
T1 sequence (P07099 1-455): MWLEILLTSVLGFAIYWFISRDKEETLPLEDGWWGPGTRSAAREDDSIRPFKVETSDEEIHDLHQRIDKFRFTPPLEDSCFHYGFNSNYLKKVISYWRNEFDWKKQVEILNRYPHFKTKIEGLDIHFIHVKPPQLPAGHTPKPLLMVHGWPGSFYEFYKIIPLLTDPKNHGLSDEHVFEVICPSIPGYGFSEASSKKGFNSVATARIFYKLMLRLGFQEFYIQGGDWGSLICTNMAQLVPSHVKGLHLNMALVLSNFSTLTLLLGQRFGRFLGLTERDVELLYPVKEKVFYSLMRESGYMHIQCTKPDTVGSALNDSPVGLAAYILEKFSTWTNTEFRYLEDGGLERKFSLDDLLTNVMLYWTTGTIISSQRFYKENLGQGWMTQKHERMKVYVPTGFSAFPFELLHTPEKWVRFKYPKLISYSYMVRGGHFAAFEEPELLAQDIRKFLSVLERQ

[1] = human, cited from earlier work
[2] = tested on: human alkaline phosphatase; assay: Selectivity: inhibition of alkaline phosphatase; type: biochemical; settings: selectivity panel
esterases and amidases = assay: Selectivity: inhibition of a series of esterases and amidases; type: biochemical; settings: selectivity panel
sEH-phosphatase activity = target: T2, sEH-phosphatase activity (Homo sapiens, UniProt P34913); assay: Selectivity: inhibition of sEH-phosphatase activity; type: biochemical; settings: selectivity panel
T2 sequence (P34913 1-555): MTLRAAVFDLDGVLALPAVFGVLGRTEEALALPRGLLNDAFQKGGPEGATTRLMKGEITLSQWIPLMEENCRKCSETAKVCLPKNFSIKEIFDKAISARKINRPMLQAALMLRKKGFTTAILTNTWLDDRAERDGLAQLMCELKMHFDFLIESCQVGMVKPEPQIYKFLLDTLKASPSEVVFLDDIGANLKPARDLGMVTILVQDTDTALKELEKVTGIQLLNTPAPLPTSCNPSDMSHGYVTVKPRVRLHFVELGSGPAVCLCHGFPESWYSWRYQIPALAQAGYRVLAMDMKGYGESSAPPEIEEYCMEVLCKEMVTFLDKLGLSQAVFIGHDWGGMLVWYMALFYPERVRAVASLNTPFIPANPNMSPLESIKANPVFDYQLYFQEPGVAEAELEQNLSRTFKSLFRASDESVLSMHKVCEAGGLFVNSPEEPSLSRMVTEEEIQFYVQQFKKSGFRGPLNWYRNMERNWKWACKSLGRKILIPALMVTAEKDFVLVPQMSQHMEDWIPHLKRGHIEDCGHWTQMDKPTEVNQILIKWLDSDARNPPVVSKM

human sEH = target: T3, human sEH (Homo sapiens, UniProt P34913); assay: Reversibility of inhibition: incubation with inhibitor, then dialysis; type: biochemical; settings: 20 nM human sEH incubated with 10 μM inhibitor for 15 min, then dialyzed
T3 sequence (P34913 1-555): T2 sequence (P34913 1-555)

Inhibition of human microsomal EH (human microsomal EH): only inhibit the sEH
Inhibition of human alkaline phosphatase [2]: only inhibit the sEH
Inhibition of sEH-phosphatase activity (sEH-phosphatase activity): only inhibit the sEH
sEH activity recovered after dialysis (human sEH): more than 80%
SMILES: C[C@]12CC[C@@H]3c4ccc(O)cc4C[C@@H](CCCCCCCCC[S+]([O-])CCCC(F)(F)C(F)(F)F)[C@H]3[C@@H]1CC[C@@H]2O (stereo partly shown) [fulvestrant]
Stability in humans [1]: very stable
Blood concentration ([1]; for several weeks following intramuscular treatment): around 10 nM
Inhibition of a series of esterases and amidases (esterases and amidases): only inhibit the sEH
